Assay: Chemical stability of composite particles in lactose carrier blend stored at 60° C. and 75% relative humidity for seven days
Type: physicochemical
Protocol: A 20 gram blend of 5% cholesterol coated salmeterol particles was prepared with a concetration of 0.8% w/w salmeterol base in alpha lactose monohydrate. Approximately 10 grams of alpha lactose monohydrate with target particle size of 65-85μm (Borcula, The Netherlands) was weighed into the bottom of a 120 mL amber glass jar. 0.247g of 5% cholesterol coated salmeterol HNA was added on top of the lactose and 9.77 g of lactose was added on top of the mixture. The mixture was blended using a Turbula T2F blender at 96 RPM for 5 minutes. The jar was removed from the blender and excess blend was tapped from the top of the jar. One additional blending cycle was performed for 5 minutes at 96 RPM to complete the process.
Samples of particles prepared in accordance with Example 2 above were stored in controlled atmospheric conditions of 60° C. and 75% relative humidity for seven days. The percentage of active ingredient was taken at day 0 and day 7. […] When cholesterol was included, the degradation was reduced to less than 2%.
It has been observed that micronized SX degrades at 60 ° C. and 75% relative humidity (RH) conditions when in a neat blend with lactose.

Row | % Impurities of Composite Particles in 0.8% Salmeterol Base/Lactose Blend, 7 Days at 60° C. and 75% RH (0.8% salmeterol base/lactose blend, 7 days at 60° C. and 75% RH) | % Impurities of Composite Particles in 0.8% Salmeterol Base/Lactose Blend, 7 Days at 60° C. and 75% RH (0.8% salmeterol base/lactose blend, 7 days at 60° C. and 75% RH, listed as MIC SX from alternate study) | % Impurities of Composite Particles in 0.8% Salmeterol Base/Lactose Blend, Initial (0.8% salmeterol base/lactose blend, initial (day 0)) | drop in the amount of SX present in the formulation (degradation) at day 7 (formulation with carrier, 60° C. and 75% relative humidity, day 7 vs day 0) | % Impurities of Composite Particles in 0.4% GW597901M Base/Lactose Blend, 7 Days at 60° C. and 75% RH (0.4% GW597901M base/lactose blend, 7 days at 60° C. and 75% RH) | % Impurities of Composite Particles in 0.4% GW597901M Base/Lactose Blend, Initial (0.4% GW597901M base/lactose blend, initial) | Structure (SMILES)
1 | 7.4% | 8.0% | 0.5% | 7% | – | – | OCc1cc(C(O)CNCCCCCCOCCCCc2ccccc2)ccc1O (stereo not drawn) [Micronized SX, salmeterol xinafoate]
2 | – | – | – | – | 10.0% | 3.9% | NS(=O)(=O)c1cccc(CCCCOCCCCCCNC[C@H](O)c2ccc(O)c(CO)c2)c1 [Micronized GW597901M, 3-(4-{[6-({(2R)-2-hydroxy-2-[4-hydroxy-3-(hydroxymethyl)phenyl]ethyl}amino)hexyl]oxy}-butyl)benzene-sulfonamide]

Source: patent publication US20060165785A1, “Method of chemically stabilizing pharmaceutical formulations with cholesterol” (priority 2005, published 2006)
